Laboratory results as given in patent US20240376411A1, “IMPROVED PERFUME COMPOSITIONS COMPRISING SULFUR-CONTAINING PRO-FRAGRANCE COMPOUNDS” (FIRMENICH SA, priority 2021, published 2024).

Legend:
[1] = Sensorial evaluation (hydrogen sulfide smell) of perfume compositions upon 1 and 2 weeks of storage at 50° C.; format: physicochemical; conditions: for amount in the perfume composition that does not lead to an unpleasant hydrogen sulfide smell upon storage: conclusion from Tables 2 to 4, storage at 50° C.
Source text: (§1) To the first perfume composition, a perfumery raw material that promotes the formation of hydrogen sulfide ((−)-(2E)-2-ethyl-4-[(1R)-2,2,3-trimethyl-3-cyclopenten-1-yl]-2-buten-1-ol) has been added at various amounts (5 wt. %, 10 wt. %, 20 wt. %, 30 wt. %, and 40 wt. %, respectively, based on the total weight of the perfume composition). For each amount, it has been tested whether a hydrogen sulfide malodor could be perceived upon storage of the final perfume composition for 1 and 2 weeks, respectively, at 50° C.
as §1, with “Likewise, to” for “To”, “second” for “first”, “((+/−)-3-methyl-5-phenyl-1-pentanol)” for “((−)-(2E)-2-ethyl-4-[(1R)-2,2,3-trimethyl-3-cyclopenten-1-yl]-2-buten-1-ol)”
as §1, with “Likewise, to” for “To”, “third” for “first”, “((+/−)-3,7-dimethyl-6-octen-1-ol)” for “((−)-(2E)-2-ethyl-4-[(1R)-2,2,3-trimethyl-3-cyclopenten-1-yl]-2-buten-1-ol)”

[2] = logP above 4 (octanol-water partition coefficient); conditions: Yes/No
[3] = Identification of perfumery raw materials that promote hydrogen sulfide formation (1:1 w/w mix, storage, smell); format: physicochemical; conditions: raw materials named in Example 2 as not promoting; test conditions not repeated there
Procedure: In other words, each of the perfumery raw materials being present in the perfume composition is capable of inducing a hydrogen sulfide smell when being mixed individually in a 1:1 (w/w) ratio with the sulfur-containing pro-fragrance compound and being stored for 2 weeks at 50° C. Preferably, a hydrogen sulfide smell is induced when being mixed in a 1:1 (w/w) ratio with 3-(dodecylthio)-1-(2,6,6-trimethylcyclohex-3-en-1-yl) butan-1-one (HaloScent® D) and stored for 2 weeks at 50° C. Preferably, the mixing is carried out in a 10 mL glass jar. The perfumery raw materials may be used as such or may be dissolved in a solvent, for example at a concentration of from 10% to 50%.
Perfumery raw materials that promote the formation of hydrogen sulfide from 3-(dodecylthio)-1-(2,6,6-trimethylcyclohex-3-en-1-yl) butan-1-one (HaloScent® D) have been identified by mixing individual perfumery raw materials with 3-(dodecylthio)-1-(2,6,6-trimethylcyclohex-3-en-1-yl) butan-1-one (HaloScent® D) in a 1:1 (w/w) ratio in a 10 mL glass jar and storing said mixture for 2 weeks at 50° C. In case a hydrogen sulfide smell (similar to rotten egg odor) could be perceived after 2 weeks, it has been concluded that the perfumery raw material promotes the formation of hydrogen sulfide from 3-(dodecylthio)-1-(2,6,6-trimethylcyclohex-3-en-1-yl) butan-1-one (HaloScent® D).

[4] = 5 wt. % of the raw material in the perfume composition, even after 2 weeks of storage
[5] = 10 wt. % of the raw material in the perfume composition, even after 2 weeks of storage
[6] = above 20 wt. % of the raw material, after 1 week of storage

SMILES | unpleasant hydrogen sulfide smell [1, 4] | unpleasant hydrogen sulfide smell [1, 5] | unpleasant hydrogen sulfide smell [1, 6] | amount in the perfume composition that does not lead to an unpleasant hydrogen sulfide smell upon storage [1] | logP > 4 [2] | unpleasant hydrogen sulfide smell ([1]; at 20 wt. % (and above) of the raw material, only after 1 week of storage at 50° C.) | promotion of formation of hydrogen sulfide from HaloScent® D [3]
CC(CCO)CCc1ccccc1 (racemic) [(+/−)-3-methyl-5-phenyl-1-pentanol] | no unpleasant hydrogen sulfide smell could be perceived | no unpleasant hydrogen sulfide smell could be perceived | unpleasant hydrogen sulfide smell was perceived | up to 19 wt. % | No | – | –
CC(C)=CCCC(C)CCO (racemic) [(+/−)-3,7-dimethyl-6-octen-1-ol] | no unpleasant hydrogen sulfide smell could be perceived | no unpleasant hydrogen sulfide smell could be perceived | unpleasant hydrogen sulfide smell was perceived | up to 19 wt. % | No | – | –
CC/C(=C\C[C@H]1CC=C(C)C1(C)C)CO [(−)-(2E)-2-ethyl-4-[(1R)-2,2,3-trimethyl-3-cyclopenten-1-yl]-2-buten-1-ol] | no unpleasant hydrogen sulfide smell could be perceived | no unpleasant hydrogen sulfide smell could be perceived | – | up to 19 wt. % | Yes | unpleasant hydrogen sulfide smell was perceived | –
CC(=O)OC1CCC(C(C)(C)C)CC1 (centres unmarked) [4-(2-methyl-2-propanyl)cyclohexyl acetate] | – | – | – | – | – | – | do not promote the formation of hydrogen sulfide
CC/C=C\CCO [(3Z)-3-hexen-1-ol] | – | – | – | – | – | – | do not promote the formation of hydrogen sulfide
